The source of these data is US12037324B2, “Biarylmethyl heterocycles” (Université de Montréal, priority 2016, dated 2024).

What all share (assay type): cell-based
Assay [1] deals with T1, AGTR1 (Homo sapiens, UniProt P30556).
T1 construct: host or cells: Pathunter CHO-K1 AGTR1 β-arrestin cell line (CHO-K1)
T1 sequence (P30556 1-359): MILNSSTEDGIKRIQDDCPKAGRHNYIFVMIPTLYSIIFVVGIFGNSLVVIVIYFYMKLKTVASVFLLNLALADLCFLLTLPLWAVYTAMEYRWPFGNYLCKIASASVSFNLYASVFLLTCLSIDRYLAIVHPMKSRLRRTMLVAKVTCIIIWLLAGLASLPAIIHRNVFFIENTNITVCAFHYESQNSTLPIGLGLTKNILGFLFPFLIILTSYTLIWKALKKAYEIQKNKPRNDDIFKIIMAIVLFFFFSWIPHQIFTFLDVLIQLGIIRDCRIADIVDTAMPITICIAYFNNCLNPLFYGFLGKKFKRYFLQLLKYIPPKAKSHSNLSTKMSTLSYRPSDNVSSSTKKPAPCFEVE
The experiment in a line: DiscoveRx β-arrestin2 recruitment assay (enzyme complementation, Pathunter CHO-K1 AGTR1 β-arrestin cell line). The following applies: DiscoveRx β-arrestin2 recruitment. Put shortly: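 Chemiluminescent enzyme-complementation read-out of β-arrestin2 recruitment to AGTR1 in engineered CHO-K1 cells after 90 min compound exposure at 37° C. Values are 4-parameter logistic EC50s in agonist mode, IC50s in antagonist mode, with efficacy relative to the maximal All response.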

Assay [2] addresses T2, hAT1R (Homo sapiens, UniProt P30556).
T2 sequence (P30556 1-359): T1 sequence (P30556 1-359)
Nature of the assay: BRET β-arrestin2 biosensor assay, higher receptor expression (hAT1R 5 ng/well), HEK293 cells. The following applies: for EC50: High AT1R Expression.

Assay [3] concerns the target T2, hAT1R. Nature of the assay: BRET Gq biosensor assay, agonist response, HEK293 cells. The following applies: section of the 42nd table directly before the BRET P63 section. Put shortly: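 Agonist EC50 derived from a 4-parameter fit of BRET2 ratio (GFP 515 nm/Rluc 410 nm), scaled between unstimulated control and maximal AngII response. Readings taken 5 min after compound addition at room temperature, with 2 μM coelenterazine, in HEK293 cells expressing hAT1R, Gαq-Rluc, Gβ1 and GFP-Gγ1 (transfected two days earlier).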

Counter-ions that a name gives are not always drawn.

Turning to `CCOc1nc2cccc(C(=O)OC)c2n1Cc1ccc(-c2cc(-c3ccccc3)ccc2-c2noc(=O)[nH]2)cc1` [Example 316, methyl 2-ethoxy-1-((6′-(5-oxo-4,5-dihydro-1,2,4-oxadiazol-3-yl)-[1,1′:3′,1″-terphenyl]-4-yl)methyl)-1H-benzo[d]imidazole-7-carboxylate], the EC50 is 53 nM in assay [1], 46.2 nM in assay [2] and above 100000 nM in assay [3]. Also, the “DiscoveRx β-arrestin2 Ymax (%)” value in assay [1] (maximal response) came to 51.6%. The “BRET β-Arrestin2 High AT1R Expression Ymax (%)” value in assay [2] was found to be 97.5%.

For the compound `CCCCc1ncc(C(=O)N2CCC2)n1Cc1ccc(-c2cc(-c3ccccc3)ccc2-c2nn[nH]n2)cc1` [Example 370], the EC50 in assay [1] is 16.3 nM; in assay [2], 45.3 nM; in assay [3], 71.9 nM. Also, the “DiscoveRx β-arrestin2 Ymax (%)” value in assay [1] (maximal response) was 26.8%. Moreover, the “BRET β-Arrestin2 High AT1R Expression Ymax (%)” value in assay [2] was found to be 85.5%.

`CCCCc1ncc(C(=O)NCCOC(C)C)n1Cc1ccc(-c2cc(-c3ccccc3)ccc2-c2nn[nH]n2)cc1` [Example 367]: the EC50 in assay [1] came out at 5.7 nM; in assay [2] it was 17.6 nM; in assay [3], 59.1 nM. Moreover, the “DiscoveRx β-arrestin2 Ymax (%)” value in assay [1] (maximal response) worked out at 35.9%. Moreover, the “BRET β-Arrestin2 High AT1R Expression Ymax (%)” value in assay [2] came out at 63.3%.

As for `CCCCC(=O)N(Cc1ccc(-c2cc(-c3cnn(C)c3)ccc2-c2nn[nH]n2)cc1)C1(C(=O)O)CCCCC1` [Example 288, 1-(N-((5′-(1-Methyl-1H-pyrazol-4-yl)-2′-(2H-tetrazol-5-yl)-[1,1′-biphenyl]-4-yl)methyl)pentanamido)cyclohexanecarboxylic acid], the concentration for a half-maximal effect (EC50) in assay [1] was 186 nM; in assay [2], 474 nM; in assay [3], above 100000 nM. In assay [1] (maximal response), the “DiscoveRx β-arrestin2 Ymax (%)” value was 29.6%. Besides, in assay [2], the “BRET β-Arrestin2 High AT1R Expression Ymax (%)” value was determined as 69.2%.

Consider `CCCCC(=O)N(Cc1ccc(-c2cc(-c3cc(F)cc(F)c3)ccc2-c2nn[nH]n2)cc1)C1(C(=O)O)CCCCC1` [Example 289], for which the EC50 in assay [1] is 48.2 nM; in assay [2] it was 13 nM; in assay [3], 546 nM. For the same compound, in assay [1] (maximal response), the “DiscoveRx β-arrestin2 Ymax (%)” value is 51.1%. For the same compound, the “BRET β-Arrestin2 High AT1R Expression Ymax (%)” value in assay [2] was 85.2%.

With `CC(C)CCC(=O)N(Cc1ccc(-c2cc(-c3ccccc3)ccc2-c2nn[nH]n2)nc1)[C@H](C(=O)O)C(C)C` [Example 433], in assay [1], the “DiscoveRx β-arrestin2 Ymax (%)” value was found to be 49.6%. Besides, the values for the EC50 in assay [1], in assay [2] and in assay [3] were 59.1 nM, 115 nM and 581 nM, respectively. Besides, the “BRET β-Arrestin2 High AT1R Expression Ymax (%)” value in assay [2] amounted to 92.4%.

For the compound `CCCCc1nc(Cl)c(C(=O)N(C)C)n1Cc1ccc(-c2cc(-c3ccccc3)ccc2-c2nn[nH]n2)cc1` [Example 381, 1-((6′-(2H-tetrazol-5-yl)-[1,1′:3′,1″-terphenyl]-4-yl)methyl)-2-butyl-4-chloro-N,N-dimethyl-1H-imidazole-5-carboxamide], the figures for the EC50 in assay [1], in assay [2] and in assay [3] were 344 nM, 828 nM and 2110 nM, respectively. Besides, in assay [1] (maximal response), the “DiscoveRx β-arrestin2 Ymax (%)” value is recorded as 37.4%. For the same compound, in assay [2], the “BRET β-Arrestin2 High AT1R Expression Ymax (%)” value turned out to be 73.9%.

With `CCOc1nc2cccc(C(=O)O)c2n1Cc1ccc(-c2cc(-c3ccc(C(=O)N(C)C)cc3)ccc2-c2noc(=O)[nH]2)cc1` [Example 321], the EC50 in assay [1] is 56.8 nM; in assay [2] it was 108 nM; in assay [3], 47.9 nM. In addition, the “DiscoveRx β-arrestin2 Ymax (%)” value in assay [1] (maximal response) amounted to 83.4%. Also, the “BRET β-Arrestin2 High AT1R Expression Ymax (%)” value in assay [2] stood at 86.7%.

Regarding `CCCCC(=O)N(Cc1ccc(-c2cc(Oc3cccc(OC(F)(F)F)c3)ccc2-c2nn[nH]n2)cc1)C1(C(=O)O)CCCCC1` [Example 287], the half-maximal effective concentration (EC50) in assay [1] is 175 nM; in assay [2], 54.1 nM; in assay [3] it was above 100000 nM. In addition, in assay [1] (maximal response), the “DiscoveRx β-arrestin2 Ymax (%)” value is reported as 30.5%. In assay [2], the “BRET β-Arrestin2 High AT1R Expression Ymax (%)” value is listed as 45.9%.

With `CCCCc1ncc(C(=O)O)n1Cc1ccc(-c2cc(-c3ccccc3)ccc2-c2nn[nH]n2)cc1` [Example 345, 1-((6′-(2H-tetrazol-5-yl)-[1,1′:3′,1″-terphenyl]-4-yl)methyl)-2-butyl-1H-imidazole-5-carboxylic acid, TFA salt], the values for the concentration giving a half-maximal response (EC50) in assay [1], in assay [2] and in assay [3] were 18.1 nM, 17.9 nM and 12.5 nM, respectively. Further, in assay [1] (maximal response), the “DiscoveRx β-arrestin2 Ymax (%)” value was 44.8%. Moreover, the “BRET β-Arrestin2 High AT1R Expression Ymax (%)” value in assay [2] worked out at 92.0%.

Take `CCCCC(=O)N(Cc1ccc(-c2cc(-c3ccccc3)ccc2-c2nn[nH]n2)cc1)C1(C(=O)O)CCOCC1` [Example 276]: the EC50 in assay [1] turned out to be 50 nM; in assay [2], 77.9 nM; in assay [3] it was 401 nM. For the same compound, in assay [1] (maximal response), the “DiscoveRx β-arrestin2 Ymax (%)” value came out at 50.9%. The “BRET β-Arrestin2 High AT1R Expression Ymax (%)” value in assay [2] came out at 73.6%.

`CCCCC(=O)N(Cc1ccc(-c2cc(-c3ccccc3)ccc2-c2nn[nH]n2)cc1)C1(C(=O)O)CC1` [Example 269]: the concentration giving a half-maximal response (EC50) is 6540 nM in assay [1], 30700 nM in assay [2] and above 100000 nM in assay [3]. In assay [1] (maximal response), the “DiscoveRx β-arrestin2 Ymax (%)” value is 14.2%. In addition, the “BRET β-Arrestin2 High AT1R Expression Ymax (%)” value in assay [2] is 58.7%.

As to `CCCCc1ncc(C(=O)NC)n1Cc1ccc(-c2cc(-c3ccccc3)ccc2-c2nn[nH]n2)cc1` [Example 382], the concentration for a half-maximal effect (EC50) in assay [1] was 13.2 nM; in assay [2], 47.1 nM; in assay [3], above 100000 nM. The “DiscoveRx β-arrestin2 Ymax (%)” value in assay [1] (maximal response) was determined as 27.6%. The “BRET β-Arrestin2 High AT1R Expression Ymax (%)” value in assay [2] stood at 67.5%.

For `CCCc1nc(CC)c(C(=O)O)n1Cc1ccc(-c2cc(-c3ccccc3)ccc2C(=O)O)cc1` [Example 400, 1-((6′-carboxy-[1,1′:3′,1″-terphenyl]-4-yl)methyl)-4-ethyl-2-propyl-1H-imidazole-5-carboxylic acid], the EC50 turned out to be 150 nM in assay [1], 172 nM in assay [2] and 892 nM in assay [3]. Also, in assay [1] (maximal response), the “DiscoveRx β-arrestin2 Ymax (%)” value was found to be 40.4%. The “BRET β-Arrestin2 High AT1R Expression Ymax (%)” value in assay [2] stood at 88.3%.

As for `CCOc1nc2cccc(C(=O)O)c2n1Cc1ccc(-c2cc(-c3cccnc3OC)ccc2C(=O)O)cc1` [Example 318], the EC50 in assay [1] came out at 47.5 nM; in assay [2], 132 nM; in assay [3], 552 nM. Also, in assay [1] (maximal response), the “DiscoveRx β-arrestin2 Ymax (%)” value came out at 54.6%. Moreover, in assay [2], the “BRET β-Arrestin2 High AT1R Expression Ymax (%)” value is 93.9%.

Turning to `CCCCc1ncc(C(=O)NCC2CC2)n1Cc1ccc(-c2cc(-c3ccccc3)ccc2-c2nn[nH]n2)cc1` [Example 365], the EC50 came out at 46.2 nM in assay [1], 35.9 nM in assay [2] and 40.8 nM in assay [3]. In assay [1] (maximal response), the “DiscoveRx β-arrestin2 Ymax (%)” value is listed as 39.7%. In addition, the “BRET β-Arrestin2 High AT1R Expression Ymax (%)” value in assay [2] is 82.7%.

With `CCCCC(=O)N(Cc1ccc(-c2cc(-c3ccccc3)ccc2-c2nn[nH]n2)cc1)C1(C(=O)O)Cc2ccccc2C1` [Example 279], the EC50 in assay [1] is 190 nM; in assay [2], 210 nM; in assay [3], above 100000 nM. In assay [1] (maximal response), the “DiscoveRx β-arrestin2 Ymax (%)” value was determined as 33.7%. In addition, in assay [2], the “BRET β-Arrestin2 High AT1R Expression Ymax (%)” value is recorded as 82.6%.

In the case of `CCOc1nc2cccc(C(=O)O)c2n1Cc1ccc(-c2cc(N3CCCC(F)(F)C3)ccc2C(=O)O)cc1` [Example 315], the EC50 in assay [1] was 242 nM; in assay [2], 1840 nM; in assay [3], above 100000 nM. In assay [1] (maximal response), the “DiscoveRx β-arrestin2 Ymax (%)” value came out at 21.5%. The “BRET β-Arrestin2 High AT1R Expression Ymax (%)” value in assay [2] is on record as 29.1%.
